Legend:
[1] = target: human DNMT1 (Homo sapiens, UniProt P26358); test: biochemical
[2] = system: CamA; format: biochemical
[3] = target: CcrM (Caulobacter vibrioides, UniProt P0CAW2); format: biochemical
[4] = target: Dam (Escherichia coli, UniProt P0AEE8); format: biochemical
[5] = target: T1, MBD4 (Mus musculus, UniProt Q9Z2D7); format: biochemical; details: inhibitor 2 μM
T1 sequence (Q9Z2D7 411-554 limits assumed): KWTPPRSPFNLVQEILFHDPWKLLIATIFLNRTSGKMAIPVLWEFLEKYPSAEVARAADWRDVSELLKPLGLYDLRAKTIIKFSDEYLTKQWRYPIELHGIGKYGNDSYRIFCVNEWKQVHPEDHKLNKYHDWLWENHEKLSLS

[6] = target: TDG (Homo sapiens, UniProt Q13569); format: biochemical
[7] = target: T2, MYH (Mus musculus, UniProt Q99P21); format: biochemical; details: inhibitor 2 μM
T2 sequence (Q99P21 1-515): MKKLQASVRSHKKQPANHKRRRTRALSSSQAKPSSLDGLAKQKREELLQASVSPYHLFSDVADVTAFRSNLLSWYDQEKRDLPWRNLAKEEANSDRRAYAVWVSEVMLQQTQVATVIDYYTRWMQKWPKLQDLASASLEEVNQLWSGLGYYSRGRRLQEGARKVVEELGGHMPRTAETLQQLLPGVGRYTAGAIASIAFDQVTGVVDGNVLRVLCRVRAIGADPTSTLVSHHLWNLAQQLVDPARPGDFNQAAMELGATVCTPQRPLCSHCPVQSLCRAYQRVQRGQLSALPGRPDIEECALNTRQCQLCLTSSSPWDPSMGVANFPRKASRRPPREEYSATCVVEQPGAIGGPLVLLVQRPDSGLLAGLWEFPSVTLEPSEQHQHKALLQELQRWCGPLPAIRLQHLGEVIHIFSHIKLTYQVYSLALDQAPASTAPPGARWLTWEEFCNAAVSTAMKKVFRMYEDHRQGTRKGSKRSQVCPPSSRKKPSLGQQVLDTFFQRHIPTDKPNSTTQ

[8] = target: T3, Pol η (Homo sapiens, UniProt Q9Y253); test: Pol η nucleotide incorporation assay; format: biochemical
T3 sequence (Q9Y253 1-432 limits assumed): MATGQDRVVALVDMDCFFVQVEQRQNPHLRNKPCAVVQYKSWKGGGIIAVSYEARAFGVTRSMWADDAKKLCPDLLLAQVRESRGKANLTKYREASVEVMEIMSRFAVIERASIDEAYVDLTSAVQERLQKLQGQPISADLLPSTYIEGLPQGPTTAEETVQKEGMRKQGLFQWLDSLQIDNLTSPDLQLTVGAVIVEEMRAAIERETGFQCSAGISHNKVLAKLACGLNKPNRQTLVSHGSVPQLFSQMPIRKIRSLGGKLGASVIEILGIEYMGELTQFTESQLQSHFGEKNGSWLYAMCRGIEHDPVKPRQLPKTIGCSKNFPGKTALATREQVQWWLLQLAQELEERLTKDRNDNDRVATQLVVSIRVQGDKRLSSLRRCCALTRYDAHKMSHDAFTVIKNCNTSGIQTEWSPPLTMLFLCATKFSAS

[9] = system: Pol θ; format: biochemical, Human; details: 50 μM
[10] = system: A549 human non-small cell lung carcinoma (NSCLC) cells; format: cell-based; details: three days, same conditions as compound 11
[11] = target: DNMT3A2–3L complex (Homo sapiens, UniProt Q9Y6K1); format: biochemical; details: [E]/[DNA] 1:2 versus 1:10, 10 μM

Chain of human DNMT1 (P26358 350-1600): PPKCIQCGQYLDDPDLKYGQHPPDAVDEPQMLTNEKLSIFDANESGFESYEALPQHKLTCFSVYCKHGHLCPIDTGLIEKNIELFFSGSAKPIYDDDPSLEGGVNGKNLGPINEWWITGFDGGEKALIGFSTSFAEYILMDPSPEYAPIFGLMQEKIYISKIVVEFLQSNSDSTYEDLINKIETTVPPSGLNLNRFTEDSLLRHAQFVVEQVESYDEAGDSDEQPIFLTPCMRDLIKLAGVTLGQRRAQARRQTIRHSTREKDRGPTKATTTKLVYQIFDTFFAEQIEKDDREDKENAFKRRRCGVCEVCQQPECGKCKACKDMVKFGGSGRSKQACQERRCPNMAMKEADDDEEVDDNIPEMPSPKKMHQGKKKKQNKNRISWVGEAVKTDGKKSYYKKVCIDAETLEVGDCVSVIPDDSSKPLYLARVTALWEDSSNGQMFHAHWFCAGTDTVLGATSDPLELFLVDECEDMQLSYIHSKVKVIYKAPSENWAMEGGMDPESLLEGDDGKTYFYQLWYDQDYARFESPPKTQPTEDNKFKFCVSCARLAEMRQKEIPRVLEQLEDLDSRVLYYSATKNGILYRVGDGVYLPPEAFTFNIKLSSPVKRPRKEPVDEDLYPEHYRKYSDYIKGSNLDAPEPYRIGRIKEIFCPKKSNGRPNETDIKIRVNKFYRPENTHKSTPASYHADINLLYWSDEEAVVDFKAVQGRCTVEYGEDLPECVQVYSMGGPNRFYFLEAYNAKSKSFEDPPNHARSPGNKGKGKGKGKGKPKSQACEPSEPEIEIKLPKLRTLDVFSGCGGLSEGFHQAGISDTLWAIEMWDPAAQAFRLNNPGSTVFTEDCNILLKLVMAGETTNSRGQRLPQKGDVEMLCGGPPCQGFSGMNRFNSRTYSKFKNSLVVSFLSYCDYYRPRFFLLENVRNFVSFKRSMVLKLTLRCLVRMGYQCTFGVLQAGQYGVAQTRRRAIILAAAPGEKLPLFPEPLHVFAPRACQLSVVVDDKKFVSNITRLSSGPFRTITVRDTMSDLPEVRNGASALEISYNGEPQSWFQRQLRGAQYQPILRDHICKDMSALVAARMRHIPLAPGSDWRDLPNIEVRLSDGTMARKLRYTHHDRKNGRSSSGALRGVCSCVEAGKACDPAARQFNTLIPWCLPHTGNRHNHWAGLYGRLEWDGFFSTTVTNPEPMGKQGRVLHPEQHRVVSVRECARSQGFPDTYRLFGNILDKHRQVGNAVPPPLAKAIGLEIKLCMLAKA
Chain of CcrM (P0CAW2 whole entry): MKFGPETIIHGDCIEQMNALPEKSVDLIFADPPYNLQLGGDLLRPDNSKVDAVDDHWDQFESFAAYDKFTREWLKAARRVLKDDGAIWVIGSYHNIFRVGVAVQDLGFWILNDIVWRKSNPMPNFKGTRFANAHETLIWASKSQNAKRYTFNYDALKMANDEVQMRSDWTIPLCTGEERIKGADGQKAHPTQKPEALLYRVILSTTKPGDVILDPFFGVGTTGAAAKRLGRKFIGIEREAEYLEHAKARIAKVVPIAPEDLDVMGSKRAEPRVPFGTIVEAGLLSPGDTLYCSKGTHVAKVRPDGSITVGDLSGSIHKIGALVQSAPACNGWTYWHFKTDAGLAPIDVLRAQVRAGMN
Chain of TDG (Q13569 whole entry): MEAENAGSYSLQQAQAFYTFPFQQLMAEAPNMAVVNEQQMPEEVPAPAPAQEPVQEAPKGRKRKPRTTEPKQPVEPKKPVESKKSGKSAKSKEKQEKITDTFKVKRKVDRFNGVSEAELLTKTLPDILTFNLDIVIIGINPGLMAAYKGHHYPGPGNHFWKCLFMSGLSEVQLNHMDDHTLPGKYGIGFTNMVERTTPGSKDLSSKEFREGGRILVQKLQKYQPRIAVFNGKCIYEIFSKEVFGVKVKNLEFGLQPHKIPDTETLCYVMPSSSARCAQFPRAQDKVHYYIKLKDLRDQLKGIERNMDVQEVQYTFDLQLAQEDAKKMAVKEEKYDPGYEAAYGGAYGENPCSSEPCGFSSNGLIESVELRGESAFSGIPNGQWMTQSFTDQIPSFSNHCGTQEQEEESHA
Chain of Dam (P0AEE8 whole entry): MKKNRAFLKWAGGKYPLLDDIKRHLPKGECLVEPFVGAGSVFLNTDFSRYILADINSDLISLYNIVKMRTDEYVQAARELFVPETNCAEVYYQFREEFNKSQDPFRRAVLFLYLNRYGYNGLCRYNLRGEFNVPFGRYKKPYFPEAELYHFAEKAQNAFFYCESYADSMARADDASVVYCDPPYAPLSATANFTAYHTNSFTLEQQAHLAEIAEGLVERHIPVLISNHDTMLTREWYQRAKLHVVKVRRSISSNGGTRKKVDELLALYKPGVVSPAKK

SMILES: Cc1cc(Nc2ccc(NC(=O)c3ccc(Nc4ccnc5ccccc45)cc3)cc2)nc(N)n1 [Compound 1]
- inhibition of DNMT1 ([1]; 10 μM compound, [E]/[DNA]=1:10): ~ 70%
- inhibition of CamA ([2]; 10 μM): less than 50%
- inhibition of CcrM (in words) [3]: no inhibitory effect at all
- inhibition of Dam (in words) [4]: no inhibitory effect at all
- inhibition of MBD4 activity on T:G mismatch [5]: do not exhibit effective inhibition
- inhibition of MBD4 activity on U:G mismatch [5]: do not exhibit effective inhibition
- inhibition of TDG activity on T:G mismatch [6]: do not exhibit effective inhibition
- inhibition of MYH excision of adenine opposite 8-oxoG [7]: do not exhibit effective inhibition
- inhibition of Pol η activity ([8]; 10 μM compound): more than 50%
- inhibition of Pol θ activity [9]: ~ 50%

SMILES: CCc1c(C#N)c(SC(C(N)=O)c2ccccc2)nc(N(C)C)c1C#N (centres unmarked) [GSK3484862]
- A549 cell viability / toxicity (in words) [10]: viabilities similar to control cells

SMILES: OC[C@H]1O[C@@H](n2cnc3c(NCCCc4ccccc4)ncnc32)[C@H](O)[C@@H]1O [MC4741, (2R,3S,4R,5R)-2-(Hydroxymethyl)-5-(6-((3-phenylpropyl)-amino)-9H-purin-9-yl)tetrahydrofuran-3,4-diol]
- IC50 ([2]; read-out: IC50 against CamA): 700 nM

SMILES: Nc1ncnc2c1ncn2[C@@H]1O[C@H](C[C@@H](N)CC[C@H](N)C(=O)O)[C@@H](O)[C@H]1O [sinefungin]
- inhibition at 10 µM ([1]; read-out: inhibition of DNMT1): ~50%
- change of DNMT3A2–3L inhibition as a function of DNA substrate concentration [11]: did not change
- inhibition of CamA (in words) [2]: limited inhibition
- inhibition of CcrM (in words) [3]: significant inhibition
- impact on Pol η polymerase activity (in words) ([8]; 10 μM): no impact on polymerase activity
